Earlier results as cited in patent US20210338678A1, “BIOACTIVE VITAMIN COMBINATIONS” (BioVit, Inc., priority 2020, published 2021).

Assays:
[1] = patients with type 2 diabetes, 16 weeks of treatment
[2] = system: CD8+T lymphocytes and natural killer (NK) cell activity; details: vitamin B12-deficient patients
[3] = system: H1N1 influenza vaccine response; details: mothers supplemented during pregnancy and postpartum
[4] = system: acute and chronic pain and inflammation; details: mice

Compound: CN(C)C(=N)N=C(N)N [metformin, Metformin]
- homocysteine [1]: modest increase in homocysteine
- levels of folate and vitamin B12 [1]: reduces levels of folate and vitamin B12

Compound: C/C1=C2/[N-][C@H]([C@H](CC(N)=O)[C@@]2(C)CCC(=O)NC[C@@H](C)OP(=O)([O-])O[C@H]2[C@@H](O)[C@@H](n3cnc4cc(C)c(C)cc43)O[C@@H]2CO)[C@]2(C)N=C(/C(C)=C3N=C(/C=C4N=C1[C@@H](CCC(N)=O)C\4(C)C)[C@@H](CCC(N)=O)[C@]\3(C)CC(N)=O)[C@@H](CCC(N)=O)[C@]2(C)CC(N)=O.[CH3-].[Co+3] [methylcobalamin, Methylcobalamin]
- antibody response of the immune system [2]: improves the antibody response of the immune system

Compound: Vitamin B12
- H1N1 influenza vaccine response [3]: improved H1N1 influenza vaccine response in mothers

Compound: cyanocobalamin
- control of acute and chronic neuropathic pain [4]: controlling acute and chronic neuropathic pain
